In assay [1] the test system is p85 subunit of PI3K. It counts as binding, human.
Assay [2] concerns PI3K/Akt. Type of assay: cell-based, human.
For assay [3], the system named is SH3, SH2C and SH2N domains of the p85 subunit of PI3K. Type of assay: binding.

“NS1: Wild-type nonstructural protein 1 of influenza A H1N1 Puerto Rico/8/34 (SEQ ID NO:2)”: the “precipitation of NS1 by p85 antibody” value in assay [1] was “did precipitate NS1 protein”. Further, the “Akt phosphorylation in NS1 expressing cells compared with vector” value in assay [2] was “greater degree of Akt phosphorylation”. Also, in assay [3], the “interaction of NS1 alone with SH2C domain of p85” value is recorded as “interacted”, the “interaction of NS1 alone with SH3 domain of p85” value is reported as “interacted”, the “interaction of NS1 with SH2C domain of p85” value is given as “precipitated NS1” and the “interaction of NS1 with SH3 domain of p85” value is given as “precipitated NS1”.

(Values after patent US7507411B2, “Attenuated influenza NS1 variants” (University of Saskatchewan, priority 2006, dated 2009).)
